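Each compound was tested at five concentrations against cells in 96-well plates for 48 hours. At the GI50, growth is halved. TGI is the concentration that stops growth completely.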
Assays:
Experiment in all cases: growth of human tumour cells (NCI), 48 h
MALME-3M melanoma = system: MALME-3M melanoma
HOP-62 NSCLC = system: HOP-62 NSCLC
ACHN renal = system: ACHN renal
A549 NSCLC = system: A549 NSCLC
SK-MEL-2 melanoma = system: SK-MEL-2 melanoma
MDA-MB-435 = system: MDA-MB-435
CAKI-1 renal = system: CAKI-1 renal
BT-549 breast = system: BT-549 breast

SMILES	TGI (MALME-3M melanoma) [µM]	TGI (HOP-62 NSCLC) [µM]	TGI (ACHN renal) [µM]	TGI (A549 NSCLC) [µM]	TGI (SK-MEL-2 melanoma) [µM]	TGI (MDA-MB-435) [µM]	TGI (CAKI-1 renal) [µM]	TGI (BT-549 breast) [µM]	GI50 (BT-549 breast) [µM]	GI50 (ACHN renal) [µM]	GI50 (SK-MEL-2 melanoma) [µM]	GI50 (MALME-3M melanoma) [µM]	GI50 (A549 NSCLC) [µM]	GI50 (MDA-MB-435) [µM]	GI50 (CAKI-1 renal) [µM]	GI50 (HOP-62 NSCLC) [µM]
COc1ccc(OC)c(NC2=NCCO2)c1	> 100	> 100	> 100	> 100	> 100	> 100	28.8	–	–	–	–	–	–	–	–	–
C/C(=N/NC(=S)Nc1cccc(Cl)c1)c1ccccn1	10	3.5	8.13	10.1	8.92	15.4	11.8	16	–	–	–	–	–	–	–	–
Cc1ccc(S(=O)(=O)NC(=O)NCCc2ccc(O)c(O)c2)cc1	> 100	> 100	> 100	> 100	> 100	> 100	> 100	–	–	–	–	–	–	–	–	–
Cc1nc(N)sc1C(=O)Nc1ncn[nH]1	–	> 100	> 100	> 100	> 100	> 100	> 100	> 100	–	–	–	–	–	–	–	–
Cn1c(=O)c2c(nc3n2CCC(=O)N3CCCCl)n(C)c1=O	–	> 100	> 100	> 100	> 100	> 100	–	> 100	–	–	–	–	–	–	–	–
O=C(OCC1CCCN2CCCCC12)c1cccnc1 (configuration not stated)	> 100	–	> 100	> 100	> 100	> 100	> 100	> 100	–	–	–	–	–	–	–	–
C[C@@H](NC(=O)[C@@H]1C[C@]1(C)CO)c1cccc2ccccc12	> 100	> 100	> 100	> 100	> 100	> 100	> 100	> 100	–	–	–	–	–	–	–	–
O=C(N/N=C\c1cccs1)c1ccncc1	> 100	> 100	> 100	> 100	> 100	> 100	> 100	> 100	–	–	–	–	–	–	–	–
Oc1cc(O)c2c(c1)O[C@H](c1cc(O)c(O)c(O)c1)[C@@H](O)C2	> 100	34	48	> 100	64.8	38.1	> 100	51.5	–	–	–	–	–	–	–	–
COCCOC(C)C(=O)C(O)S(=O)(=O)O (configuration not stated)	> 100	> 100	> 100	> 100	> 100	> 100	–	> 100	–	–	–	–	–	–	–	–
O=C1C(C(c2ccc([N+](=O)[O-])cc2)N2CCOCC2)=C(O)C(c2ccccc2)N1c1ccccc1 (configuration not stated)	> 10	> 10	> 10	> 10	> 10	> 10	> 10	> 10	–	–	–	–	–	–	–	–
CC1(C)Oc2ccc3c(=O)cc(-c4cccs4)oc3c2C1C(=O)O (configuration not stated)	> 100	> 100	–	> 100	> 100	> 100	60.4	–	–	–	–	–	–	–	–	–
Nc1nc(Nc2ccc(Cl)cc2)sc1C(=O)c1c[nH]c2ccccc12	31.2	46.9	36.2	29.5	28.4	47.5	–	34	–	–	–	–	–	–	–	–
CCCCOc1c(C(=O)O)cc(Br)cc1C(=O)O	> 100	> 100	> 100	> 100	> 100	> 100	> 100	> 100	–	–	–	–	–	–	–	–
CCCCC(=C=C(C)CO)C1CCCN1C(=O)OC(C)(C)C (configuration not stated)	28.2	39.1	68.2	48.1	30.6	35.8	61.5	31.8	–	–	–	–	–	–	–	–
Cc1ccc(/C(O)=C/c2nc3cccnc3[nH]c2=O)cc1	> 100	85.9	> 100	> 100	> 100	> 100	> 100	> 100	–	–	–	–	–	–	–	–
CC(=O)OC12CC(C(F)(F)F)(C(F)(F)F)OC1(OC(C)=O)CC(C(F)(F)F)(C(F)(F)F)O2 (configuration not stated)	> 100	> 100	2.38	5.6	> 100	> 100	–	> 100	–	–	–	–	–	–	–	–
CC(C)NCC(O)c1ccc(O)c2ncccc12 (configuration not stated)	–	> 100	> 100	> 100	> 100	> 100	> 100	> 100	–	–	–	–	–	–	–	–
O=C(CNc1nccs1)Nn1cnc2ccc(S(=O)(=O)Nc3nccs3)cc2c1=O	> 100	> 100	> 100	> 100	> 100	> 100	> 100	> 100	–	–	–	–	–	–	–	–
C=CC(C)(C)C1(CC(OC)OC)C(=O)N(C)c2ccccc21 (configuration not stated)	–	> 25	> 25	> 25	> 25	> 25	> 25	–	–	–	–	–	–	–	–	–

SMILES	TGI (MALME-3M melanoma) [µM]	TGI (HOP-62 NSCLC) [µM]	TGI (ACHN renal) [µM]	TGI (A549 NSCLC) [µM]	TGI (SK-MEL-2 melanoma) [µM]	TGI (MDA-MB-435) [µM]	TGI (CAKI-1 renal) [µM]	TGI (BT-549 breast) [µM]	GI50 (BT-549 breast) [µM]	GI50 (ACHN renal) [µM]	GI50 (SK-MEL-2 melanoma) [µM]	GI50 (MALME-3M melanoma) [µM]	GI50 (A549 NSCLC) [µM]	GI50 (MDA-MB-435) [µM]	GI50 (CAKI-1 renal) [µM]	GI50 (HOP-62 NSCLC) [µM]
Fc1ccc2[nH]cc(-c3nc(-c4c[nH]c5ccncc45)cs3)c2c1	–	–	2.97	–	3.75	–	–	3.07	1.65	1.61	1.91	–	–	–	–	–
Clc1ccc2nc3n[nH]c(Cl)c3nc2c1	–	> 100	> 100	> 100	> 100	> 100	> 100	> 100	–	–	–	–	–	–	–	–
Cc1ccc2n(c1)cc(-c1ccc(/C=N/NC(=N)N/N=C/c3ccc(-c4cn5cc(C)ccc5[n+]4C)cc3)cc1)[n+]2C	–	> 100	> 100	> 100	–	> 100	–	–	–	–	–	–	–	–	–	–
Nc1nc2c(c(-c3ccccc3Cl)n1)COC/C2=C\c1ccccc1Cl	–	32.2	32.3	–	31	24.7	31.9	33.4	–	–	–	–	–	–	–	–
COC(=O)c1ccccc1NC(=S)NN(C)C	> 100	–	> 100	> 100	> 100	> 100	> 100	> 100	–	–	–	–	–	–	–	–
CCCCCCCCCC(O)CC(=O)c1c(O)cccc1O (configuration not stated)	32.3	33.1	53.7	55.1	35.7	68.1	44	–	–	–	–	–	–	–	–	–
Cn1cc(-c2nc(-c3c[nH]c4ccncc34)cs2)c2ccccc21	3.23	–	2.96	3.46	3.51	3.32	2.85	35.5	9	1.6	1.8	1.69	1.83	1.79	1.48	–
CC(C(=O)NCCNC(=O)CCC(=O)N(C)O)C(=O)NCCNC(=O)CCC(=O)N(C)O	> 100	> 100	> 100	> 100	> 100	> 100	> 100	–	–	–	–	–	–	–	–	–
CCNC(=O)NNc1ncnc2c1c(-c1ccc(Cl)cc1)cn2-c1ccc(C)cc1	35.5	35.2	41.9	37.2	42.2	30.7	51.1	–	–	–	–	–	–	–	–	–
COc1cc(OCc2nc3cc(C(F)(F)F)ccc3nc2-c2ccccc2)cc(OC)c1OC	> 100	–	> 100	> 100	> 100	> 100	> 100	> 100	–	–	–	–	–	–	–	–
Cc1nc2ccccc2c(=O)n1NC(=O)c1ccccc1[N+](=O)[O-]	> 100	> 100	> 100	> 100	–	> 100	–	> 100	–	–	–	–	–	–	–	–
Cc1ccc(S(=O)(=O)/N=C2/N(C)CCCS2(=O)=O)cc1	–	> 100	> 100	> 100	> 100	> 100	> 100	> 100	–	–	–	–	–	–	–	–
O=S(c1ccccc1)C1CC2CC3(CCC21O)OCCO3 (configuration not stated)	> 100	> 100	> 100	> 100	> 100	> 100	> 100	–	–	–	–	–	–	–	–	–
N#C/C(=C/n1c(=S)[nH]c2ccccc21)C(N)=O	> 100	> 100	> 100	> 100	> 100	> 100	> 100	–	–	–	–	–	–	–	–	–
COC(=O)[C@@H]1[C@H](O)CCC2=C(CC(=O)c3ccoc3)[C@H](C)CC[C@]21C	> 50	> 50	> 50	> 50	> 50	–	> 50	> 50	–	–	–	–	–	–	–	–
C=CCNc1nc(O)c(/C=C2\C=Nc3ncccc32)s1	–	5.77	> 100	19.4	5.09	4.96	> 100	–	–	2.21	2.23	–	7.08	1.94	2.22	1.84
CC(C)(C)c1ccc(O)c(C(c2ccc([N+](=O)[O-])cc2)c2cc(C(C)(C)C)ccc2O)c1	–	3.39	3.3	3.77	3.36	–	2.88	–	–	–	–	–	–	–	–	–
C[C@]12C(=O)C=CCC1=CC[C@@H]1[C@@H]2[C@H]2CC3(O)C(=O)O[C@@]4(C)[C@H]5C[C@@]6(C)[C@@H]7[C@@]2(O)[C@]1(OC[C@H]6C(=O)O5)O[C@]734 (some centres not stated)	> 100	–	> 100	> 100	> 100	> 100	> 100	–	–	–	–	–	–	–	–	–
COC(=O)CCCC1(CCCC(=O)OC)CCCCCCCCC(CCCC(=O)OC)(CCCC(=O)OC)C(=O)C1=O	60.1	> 100	> 100	29.9	70.5	> 100	24.4	–	–	–	–	–	–	–	–	–
